What was measured:
[1] = target: His-tagged CRBN-DDB1 complex (Homo sapiens, UniProt Q96SW2); test: Time-Resolved Fluorescence Resonance Energy Transfer (TR-FRET / HTRF) CRBN binding assay, displacement of Cy5-labeled thalidomide; settings: His-CRBN-DDB1, Cy5-thalidomide 8 nM, 1 hour room temperature
CRBN-DDB1 = CRBN-DDB1 (Homo sapiens, UniProt Q96SW2); test: Fluorescence Polarization (FP) CRBN binding assay, probe TM-493 (FAM-BB-100); settings: CRBN-DDB1, TM-493 probe, 60 min room temperature
Procedure: Fluorescence Polarization (FP) Assay
Materials: PerkinElmer EnVision 2104 Multilabel Reader, PerkinElmer FITC FP dual emission Label 2100-8060, Corning 384-well microplate #4514, V-CMR-TM-493 (FAM-BB-100), and CRBN-DDB1-180605.
Methods: Dilution buffer (50 mM HEPES-Na pH 7.5, 100 mM NaCl, 2 mM DTT, and 0.005% Tween-20) and compound DMSO dilutions were prepared. 4× compound working solutions were made with 8% DMSO (4×) and 13.8 μL/well of dilution buffer was placed in a new 96-well plate and 1.2 μL/well of above compound DMSO dilutions were added to the wells. 40 nM (4×) TM-493 in dilution buffer was prepared from a 10 μM DMSO stock and 15 μL per well of the TM-493 working solution was transferred into the compound working solution. 160 nM (2×) CRBN-DDB1 working solution was prepared with Dilution Buffer and 10 μL/well were added into a 384-well plate. 10 μL per well of the TM-493/compound mixture were transferred into the 384-well plate. The “positive control” was sample without protein and compound in 2% DMSO. After incubation at room temperature for 60 min, data was collected and read on data on an EnVision with the following setting: Excitation Light (%): 100; Measurement Height: 9.4; G-Factor: 1; Detector Gain 1: 200; Detector Gain 2: 200; Flash Number: 100. Data was processed using GraphPad Prism 7.0
The compound numbers correspond to the compound numbers in Table 1.

Chain of His-tagged CRBN-DDB1 complex (Q96SW2 whole entry): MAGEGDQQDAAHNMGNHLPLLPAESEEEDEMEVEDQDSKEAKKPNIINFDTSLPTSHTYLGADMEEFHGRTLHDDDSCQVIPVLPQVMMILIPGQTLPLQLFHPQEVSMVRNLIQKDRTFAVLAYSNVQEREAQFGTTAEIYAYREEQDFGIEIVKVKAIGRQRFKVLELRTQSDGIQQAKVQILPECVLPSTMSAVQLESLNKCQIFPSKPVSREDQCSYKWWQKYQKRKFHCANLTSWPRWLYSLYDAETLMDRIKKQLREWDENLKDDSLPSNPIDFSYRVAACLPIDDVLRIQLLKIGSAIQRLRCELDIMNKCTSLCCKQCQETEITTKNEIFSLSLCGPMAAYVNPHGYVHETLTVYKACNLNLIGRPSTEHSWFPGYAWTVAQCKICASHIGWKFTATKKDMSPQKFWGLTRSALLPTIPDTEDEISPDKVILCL
Chain of His-tagged CRBN-DDB1 complex (Q16531 whole entry partner): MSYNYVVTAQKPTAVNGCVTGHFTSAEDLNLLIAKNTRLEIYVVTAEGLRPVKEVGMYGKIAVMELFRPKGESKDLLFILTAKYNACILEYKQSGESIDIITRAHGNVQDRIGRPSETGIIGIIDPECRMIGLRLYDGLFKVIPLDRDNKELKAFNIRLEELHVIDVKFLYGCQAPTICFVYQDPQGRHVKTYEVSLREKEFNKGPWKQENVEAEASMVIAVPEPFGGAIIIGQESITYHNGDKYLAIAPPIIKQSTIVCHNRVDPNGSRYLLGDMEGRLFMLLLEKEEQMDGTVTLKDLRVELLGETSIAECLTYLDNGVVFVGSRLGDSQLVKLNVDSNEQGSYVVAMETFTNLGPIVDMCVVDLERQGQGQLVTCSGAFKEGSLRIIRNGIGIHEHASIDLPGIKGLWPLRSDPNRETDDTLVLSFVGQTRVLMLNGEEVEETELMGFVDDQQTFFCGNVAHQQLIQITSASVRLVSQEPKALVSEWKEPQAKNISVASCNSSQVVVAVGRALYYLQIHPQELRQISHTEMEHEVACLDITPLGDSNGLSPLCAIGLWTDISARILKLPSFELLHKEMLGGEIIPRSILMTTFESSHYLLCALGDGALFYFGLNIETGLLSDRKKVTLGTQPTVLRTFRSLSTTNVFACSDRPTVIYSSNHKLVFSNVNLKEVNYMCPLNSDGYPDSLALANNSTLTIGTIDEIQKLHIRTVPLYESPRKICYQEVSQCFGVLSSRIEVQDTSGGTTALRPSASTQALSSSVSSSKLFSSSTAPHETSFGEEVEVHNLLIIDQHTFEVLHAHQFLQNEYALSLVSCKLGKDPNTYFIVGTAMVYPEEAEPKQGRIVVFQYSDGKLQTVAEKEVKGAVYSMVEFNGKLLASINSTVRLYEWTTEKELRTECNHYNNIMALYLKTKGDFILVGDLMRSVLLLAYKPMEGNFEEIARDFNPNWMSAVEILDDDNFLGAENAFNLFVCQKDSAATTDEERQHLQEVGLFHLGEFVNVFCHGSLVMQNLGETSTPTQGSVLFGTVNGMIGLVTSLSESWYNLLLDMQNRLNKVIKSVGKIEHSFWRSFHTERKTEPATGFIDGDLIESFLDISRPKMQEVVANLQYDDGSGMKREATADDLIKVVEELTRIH
Chain of CRBN-DDB1 (Q96SW2 whole entry): as the sequence (Q96SW2 whole entry) above
Chain of CRBN-DDB1 (Q16531 whole entry partner): as the sequence (Q16531 whole entry partner) above

SMILES	IC50 [1]	IC50 (CRBN-DDB1)
CC(C)(C)OC(=O)NCCCC#Cc1ccc(Oc2cccc3c2C(=O)NC(=O)C3)cc1 [Compound I-228]	> 100 µM	> 100 µM
CC(C)(C)OC(=O)NCCCCCC#Cc1ccc(Oc2cccc3c2C(=O)NC(=O)C3)cc1 [Compound I-230]	> 100 µM	> 100 µM
CC(C)(C)OC(=O)NCCCCCCCc1ccc(Oc2cccc3c2C(=O)NC(=O)C3)cc1 [Compound I-231]	> 100 µM	> 100 µM
CC(C)(C)OC(=O)NCCCCCCCC#Cc1ccc(Oc2cccc3c2C(=O)NC(=O)C3)cc1 [Compound I-232]	> 100 µM	> 100 µM
CC(C)(C)OC(=O)NCCCCCCCCCc1ccc(Oc2cccc3c2C(=O)NC(=O)C3)cc1 [Compound I-233]	> 100 µM	> 100 µM
CC(C)(C)OC(=O)NCCCCCC#Cc1cccc(Oc2cccc3c2C(=O)NC(=O)C3=O)c1 [Compound I-234]	< 10 µM	< 10 µM
O=C1Cc2cncc(Oc3ccccc3)c2C(=O)N1 [Compound I-235]	< 10 µM	10 to 30 µM
O=C1Cc2nccc(Oc3ccccc3)c2C(=O)N1 [Compound I-236]	> 100 µM	> 100 µM
CC(C)(C)OC(=O)NCCCCCCCC#Cc1cccc(Oc2cccc3c2C(=O)NC(=O)C3=O)c1 [Compound I-237]	< 10 µM	10 to 30 µM
O=C1NC(=O)c2cc(Oc3ccccc3)ccc2C1=O [Compound I-238]	30 to 100 µM	30 to 100 µM
CC(C)(C)OC(=O)NCCCC#Cc1ccc(Oc2cccc3c2C(=O)NC(=O)C3=O)cc1 [Compound I-239]	< 10 µM	< 10 µM
CC(C)(C)OC(=O)NCCCCCCCC#Cc1ccc(Oc2cccc3c2C(=O)NC(=O)C3=O)cc1 [Compound I-240]	< 10 µM	10 to 30 µM
CC(C)(C)OC(=O)NCCCCCCCCCc1ccc(Oc2cccc3c2C(=O)NC(=O)C3=O)cc1 [Compound I-241]	< 10 µM	30 to 100 µM
CC(C)(C)OC(=O)NCCCCCCCC#Cc1ccccc1Oc1cccc2c1C(=O)NC(=O)C2=O [Compound I-243]	< 10 µM	30 to 100 µM
Cc1ccccc1Oc1cccc2c1C(=O)NC(=O)C2=O [Compound I-253]	10 to 30 µM	< 10 µM
O=C1Cc2cnn(Cc3ccccc3)c2C(=O)N1 [Compound I-257]	> 100 µM	> 100 µM

Continued, values first:

IC50 [1]	IC50 (CRBN-DDB1)	SMILES
> 100 µM	> 100 µM	CC(C)(C)OC(=O)NCCCCCc1ccc(Oc2cccc3c2C(=O)NC(=O)C3)cc1 [Compound I-229]
10 to 30 µM	30 to 100 µM	NCC#Cc1cccc(Oc2cccc3c2C(=O)NC(=O)C3)c1 [Compound I-244]
< 10 µM	10 to 30 µM	NCCCC#Cc1cccc(Oc2cccc3c2C(=O)NC(=O)C3)c1 [Compound I-245]
< 10 µM	< 10 µM	NCCCCCc1cccc(Oc2cccc3c2C(=O)NC(=O)C3)c1 [Compound I-246]
< 10 µM	10 to 30 µM	NCCCCCC#Cc1cccc(Oc2cccc3c2C(=O)NC(=O)C3)c1 [Compound I-247]
> 100 µM	30 to 100 µM	NCCCCCCCC#Cc1cccc(Oc2cccc3c2C(=O)NC(=O)C3)c1 [Compound I-248]
10 to 30 µM	10 to 30 µM	NCCCCCc1ccc(Oc2cccc3c2C(=O)NC(=O)C3)cc1 [Compound I-249]
< 10 µM	< 10 µM	NCCCCCCCc1ccc(Oc2cccc3c2C(=O)NC(=O)C3)cc1 [Compound I-250]
< 10 µM	< 10 µM	NCCCCCCCCCc1ccc(Oc2cccc3c2C(=O)NC(=O)C3)cc1 [Compound I-251]
10 to 30 µM	30 to 100 µM	CC(C)(C)OC(=O)NCCCCCCCc1ccccc1Oc1cccc2c1C(=O)NC(=O)C2=O [Compound I-252]
10 to 30 µM	30 to 100 µM	NCCCCCc1ccccc1Oc1cccc2c1C(=O)NC(=O)C2 [Compound I-254]
10 to 30 µM	10 to 30 µM	NCCCCCCCCCc1ccccc1Oc1cccc2c1C(=O)NC(=O)C2 [Compound I-255]
